Results published in patent publication US10550102B2, “Indane and indoline derivatives and the use thereof as soluble guanylate cyclase activators” (NOVARTIS AG, priority 2014, dated 2020).

Molecular target: soluble guanylate cyclase (human GUCYA3 and GUCYB3) overexpressed in CHO cells (Homo sapiens (Human), UniProt Q02108+Q02153)
Assay: CHO cellular assay (cGMP production, Cisbio cGMP HTRF kit)
Type: cell-based
Conditions: CHO GUCY clone 8E10, cGMP production, assay buffer with 1 mM IBMX and 20 uM ODQ, 1 h room temperature; minimum quantification limit 0.5 nM (listed 0.5 nM means ≤0.5 nM); read-out: EC50
Summary of the method: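 EC50 was derived by 4-parameter sigmoidal fit of cGMP levels, read by HTRF against a standard curve. Compounds were applied for 1 h at room temperature, in buffer with 20 uM ODQ, 1 mM IBMX and 0.1% BSA (0.5% DMSO final). The cells were a stable CHO-K1 line (clone 8E10) overexpressing human GUCYA3 and GUCYB3, seeded at 3000/well.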

Chain of soluble guanylate cyclase (human GUCYA3 and GUCYB3) overexpressed in CHO cells (Q02108 whole entry partner): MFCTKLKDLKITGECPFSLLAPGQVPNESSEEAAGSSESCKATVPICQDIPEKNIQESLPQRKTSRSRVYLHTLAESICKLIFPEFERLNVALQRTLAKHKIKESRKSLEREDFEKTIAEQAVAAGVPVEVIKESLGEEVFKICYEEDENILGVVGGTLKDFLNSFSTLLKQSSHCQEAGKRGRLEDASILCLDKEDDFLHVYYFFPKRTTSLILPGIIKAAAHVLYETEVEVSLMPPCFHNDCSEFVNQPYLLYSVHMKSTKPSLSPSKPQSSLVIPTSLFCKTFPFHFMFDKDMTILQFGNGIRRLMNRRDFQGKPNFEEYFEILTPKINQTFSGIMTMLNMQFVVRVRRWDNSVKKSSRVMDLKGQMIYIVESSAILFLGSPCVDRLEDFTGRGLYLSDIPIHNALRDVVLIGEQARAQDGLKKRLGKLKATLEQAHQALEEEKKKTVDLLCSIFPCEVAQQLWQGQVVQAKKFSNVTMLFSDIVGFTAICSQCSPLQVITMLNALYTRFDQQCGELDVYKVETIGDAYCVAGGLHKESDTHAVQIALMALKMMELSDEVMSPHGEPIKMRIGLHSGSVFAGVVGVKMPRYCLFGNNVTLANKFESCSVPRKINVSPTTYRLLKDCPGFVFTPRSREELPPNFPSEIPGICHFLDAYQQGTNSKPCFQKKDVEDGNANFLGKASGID
Chain of soluble guanylate cyclase (human GUCYA3 and GUCYB3) overexpressed in CHO cells (Q02153 whole entry): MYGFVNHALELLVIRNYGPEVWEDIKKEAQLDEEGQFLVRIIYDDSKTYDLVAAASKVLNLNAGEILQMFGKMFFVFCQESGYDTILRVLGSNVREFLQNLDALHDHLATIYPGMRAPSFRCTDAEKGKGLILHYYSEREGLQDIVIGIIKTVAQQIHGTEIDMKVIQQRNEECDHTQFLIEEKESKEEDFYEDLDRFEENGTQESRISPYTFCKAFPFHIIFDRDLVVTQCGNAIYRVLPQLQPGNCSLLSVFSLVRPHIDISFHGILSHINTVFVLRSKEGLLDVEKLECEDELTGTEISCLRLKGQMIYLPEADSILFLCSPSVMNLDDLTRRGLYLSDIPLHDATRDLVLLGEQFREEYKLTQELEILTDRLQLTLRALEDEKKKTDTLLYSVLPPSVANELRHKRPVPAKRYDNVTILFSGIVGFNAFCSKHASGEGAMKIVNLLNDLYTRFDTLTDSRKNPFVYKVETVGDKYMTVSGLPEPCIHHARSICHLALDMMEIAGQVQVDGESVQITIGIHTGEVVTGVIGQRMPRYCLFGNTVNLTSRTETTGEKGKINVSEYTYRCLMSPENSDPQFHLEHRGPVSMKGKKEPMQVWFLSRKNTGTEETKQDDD

SMILES | EC50 [nM]
Cc1cc(C2CCN(C(=O)[C@H](C)O)CC2)ccc1NC1CCc2cccc(-c3cccc(-n4ncc(C(=O)O)c4C)n3)c21 (single isomer, unassigned; (-)) [Example 47b] | 27
CCc1nc(NC2CCc3cccc(-c4cccc(-n5ncc(C(=O)O)c5CC)n4)c32)ccc1C1CCN(C(=O)C2CC2)CC1 (single isomer, unassigned; (-)) [Example 63b, (−)-1-(6-(3-((5-(1-(Cyclopropanecarbonyl)piperidin-4-yl)-6-ethylpyridin-2-yl)amino)-2,3-dihydro-1H-inden-4-yl)pyridin-2-yl)-5-ethyl-1H-pyrazole-4-carboxylic Acid] | 60
Cc1cc(C2CCN(C(=O)C3CC3)CC2)ccc1OC1CCc2cccc(-c3cccc(-n4ncc(C(=O)O)c4C(F)(F)F)c3)c21 (single isomer, unassigned; (-)) [Example (−)-1. b), (−)-1-(3-(3-(4-(1-(cyclopropanecarbonyl)piperidin-4-yl)-2-methylphenoxy)-2,3-dihydro-1H-inden-4-yl)phenyl)-5-(trifluoromethyl)-1H-pyrazole-4-carboxylic acid] | 10
Cc1cc(C2CCN(C(=O)C3CC3)CC2)ccc1NC1CCc2cccc(-c3cccc(-n4ncc(C(=O)O)c4C(F)(F)F)n3)c21 (single isomer, unassigned; (-)) [Example (−)-8. b), (−)-1-(6-(3-((4-(1-(cyclopropanecarbonyl)piperidin-4-yl)-2-methylphenyl)amino)-2,3-dihydro-1H-inden-4-yl)pyridin-2-yl)-5-(trifluoromethyl)-1H-pyrazole-4-carboxylic Acid] | 53
Cc1cc(C2CCN(C(=O)C3CC3)CC2)ccc1O[C@H]1CCc2cccc(-c3cccc(-n4ncc(C(=O)O)c4C)c3)c21 [Example 2, (+)-(S)-1-(3-(3-(4-(1-(Cyclopropanecarbonyl)piperidin-4-yl)-2-methylphenoxy)-2,3-dihydro-1H-inden-4-yl)phenyl)-6-methyl-1H-pyrazole-4-carboxylic Acid] | 1
Cc1cc2c(c(-c3cccc(-n4ncc(C(=O)O)c4C(F)(F)F)n3)c1)C(Oc1ccc(C3CCN(C(=O)C4CC4)CC3)cc1C)CC2 (stereo not drawn) [Example 5-2] | 1
CCc1cc(O[C@H]2CCc3cccc(-c4cccc(-n5ncc(C(=O)O)c5C(F)(F)F)n4)c32)ccc1C1CCN(C(=O)C2CC2)CC1 [Example 5-3] | ≤ 0.5
Cc1cc(C2CCN(CC(F)(F)F)CC2)ccc1O[C@H]1CCc2cccc(-c3cccc(-n4ncc(C(=O)O)c4C(F)(F)F)n3)c21 [Example 5-4] | 2
Cc1cc(C2CCN(C(=O)C3CC3)CC2)ccc1O[C@H]1CCc2cccc(-c3cccc(-n4cc(C(=O)O)cn4)n3)c21 [Example 5-5] | 2.4
Cc1cc(C2CCN(C(=O)C3CC3)CC2)ccc1O[C@H]1CCc2cccc(-c3cccc(-n4ncc(C(=O)O)c4C)n3)c21 [Example 5-6] | ≤ 0.5
CCc1c(C(=O)O)cnn1-c1cccc(-c2cccc3c2[C@@H](Oc2ccc(C4CCN(C(=O)C5CC5)CC4)cc2C)CC3)n1 [Example 5-7] | ≤ 0.5
CCc1c(C(=O)O)cnn1-c1cccc(-c2cccc3c2[C@@H](Oc2ccc(C4CCN(CC(F)(F)F)CC4)cc2C)CC3)n1 [Example 5-8] | 1
O=C(O)c1cnn(-c2cccc(-c3cccc4c3C(Nc3ccc(C5CCN(C(=O)C6CC6)CC5)cc3)CC4)n2)c1C(F)(F)F (stereo not drawn) [Example 11-2] | 1
CCc1cc(CN2CCc3cccc(-c4cccc(-n5ncc(C(=O)O)c5C(F)(F)F)n4)c32)ccc1C1CCN(CC(F)(F)F)CC1 [Example 15] | 1.5
CCc1cc(CN2CCc3cccc(-c4cccc(-n5ncc(C(=O)O)c5CC)n4)c32)ccc1C1CCN(CC(F)(F)F)CC1 [Example 16, 5-Ethyl-1-(6-(1-(3-ethyl-4-(1-(2,2,2-trifluoroethyl)piperidin-4-yl)benzyl)indolin-7-yl)pyridin-2-yl)-1H-pyrazole-4-carboxylic Acid] | 3.5
Cc1cc(C2CCN(C3CC3)CC2)ccc1CN1CCc2cccc(-c3cccc(-n4ncc(C(=O)O)c4C)n3)c21 [Example 24, 1-(6-(1-(4-(1-Cyclopropylpiperidin-4-yl)-2-methylbenzyl)indolin-7-yl)pyridin-2-yl)-5-methyl-1H-pyrazole-4-carboxylic Acid] | 7.9
O=C(O)c1cnn(-c2cccc(-c3cccc4ccn(Cc5ccc(C6CCN(C(=O)C7CC7)CC6)cc5)c34)n2)c1C(F)(F)F [Example 26, 1-(6-(1-(4-(1-(Cyclopropanecarbonyl)piperidin-4-yl)benzyl)-1H-indol-7-yl)pyridin-2-yl)-5-(trifluoromethyl)-1H-pyrazole-4-carboxylic Acid] | 21
CCc1cc(Cn2ccc3cccc(-c4cccc(-n5ncc(C(=O)O)c5CC)n4)c32)ccc1C1CCN(C(=O)C2CC2)CC1 [Example 27] | ≤ 0.5
CCOC(=O)N1CCC(c2ccc(O[C@H]3CCc4cccc(-c5cccc(-n6ncc(C(=O)O)c6CC)n5)c43)cc2CC)CC1 [Example 29, (S)-1-(6-(3-(4-(1-(Ethoxycarbonyl)piperidin-4-yl)-3-ethylphenoxy)-2,3-dihydro-1H-inden-4-yl)pyridin-2-yl)-5-ethyl-1H-pyrazole-4-carboxylic Acid] | 1
CCC[C@H](O)C(=O)N1CCC(c2ccc(O[C@H]3CCc4cccc(-c5cccc(-n6ncc(C(=O)O)c6CC)n5)c43)cc2CC)CC1 [Example 31-1] | ≤ 0.5
CCc1cc(O[C@H]2CCc3cccc(-c4cccc(-n5ncc(C(=O)O)c5CC)n4)c32)ccc1C1CCN(C(=O)[C@@H](O)CC)CC1 [Example 31-2] | ≤ 0.5
CCc1cc(O[C@H]2CCc3cccc(-c4cccc(-n5ncc(C(=O)O)c5CC)n4)c32)ccc1C1CCN(C(=O)[C@@H](C)CO)CC1 [Example 31-3, 5-Ethyl-1-(6-((S)-3-(3-ethyl-4-(1-((S)-3-hydroxy-2-methylpropanoyl)piperidin-4-yl)phenoxy)-2-3-dihydro-1H-inden-4-yl)pyridin-2-yl)-1H-pyrazole-4-carboxylic acid] | ≤ 0.5
CCc1cc(O[C@H]2CCc3cccc(-c4cccc(-n5ncc(C(=O)O)c5CC)n4)c32)ccc1C1CCN(C(=O)C2(O)CCC2)CC1 [Example 31-4, (S)-5-Ethyl-1-(6-(3-(3-ethyl-4-(1-(1-hydroxycyclobutanecarbonyl)piperidin-4-yl)phenoxy)-2,3-dihydro-1H-inden-4-yl)pyridin-2-yl)-1H-pyrazole-4-carboxylic acid] | ≤ 0.5
CCc1cc(O[C@H]2CCc3cccc(-c4cccc(-n5ncc(C(=O)O)c5CC)n4)c32)ccc1C1CCN(C(=O)C2(O)CC2)CC1 [Example 33, (S)-5-ethyl-1-(6-(3-(3-ethyl-4-(1-(1-hydroxycyclopropanecarbonyl)piperidin-4-yl)phenoxy)-2,3-dihydro-1H-inden-4-yl)pyridin-2-yl)-1H-pyrazole-4-carboxylic Acid] | ≤ 0.5
CCOC(=O)N1CCC(c2ccc(NC3CCc4cccc(-c5cccc(-n6ncc(C(=O)O)c6C)n5)c43)c(C)c2)CC1 (stereo not drawn) [Example 52-4] | ≤ 0.5

Now from value to molecule:

EC50 [nM] | SMILES
39 | Cc1cc2c(c(-c3cccc(-n4ncc(C(=O)O)c4C(F)(F)F)n3)c1)C(Oc1ccc3c(c1)CCN(Cc1ccccn1)C3)CC2 (stereo not drawn) [Example 5-1]
≤ 0.5 | CCc1cc(O[C@H]2CCc3cccc(-c4cccc(-n5ncc(C(=O)O)c5CC)n4)c32)ccc1C1CCN(C(=O)C2CC2)CC1 [Example 5-9]
1.4 | CCc1c(C(=O)O)cnn1-c1cccc(-c2cccc3c2C(Nc2ccc(C4CCN(CC(F)(F)F)CC4)cc2C)CC3)n1 (stereo not drawn) [Example 11-3]
1 | O=C(O)c1cnn(-c2cccc(-c3cccc4c3N(Cc3ccc(C5CCN(C(=O)C6CC6)CC5)cc3)CC4)n2)c1C(F)(F)F [Example 12, 1-(6-(1-(4-(1-(Cyclopropanecarbonyl)piperidin-4-yl)benzyl)indolin-7-yl)pyridin-2-yl)-5-(trifluoromethyl)-1H-pyrazole-4-carboxylic Acid]
≤ 0.5 | CCc1cc(CN2CCc3cccc(-c4cccc(-n5ncc(C(=O)O)c5C(F)(F)F)n4)c32)ccc1C1CCN(C(=O)C2CC2)CC1 [Example 13]
≤ 0.5 | CCc1cc(CN2CCc3cccc(-c4cccc(-n5ncc(C(=O)O)c5CC)n4)c32)ccc1C1CCN(C(=O)C2CC2)CC1 [Example 14, 1-(6-(1-(4-(1-(Cyclopropanecarbonyl)piperidin-4-yl)-3-ethylbenzyl)indolin-7-yl)pyridin-2-yl)-5-ethyl-1H-pyrazole-4-carboxylic Acid]
1.4 | CCc1c(C(=O)O)cnn1-c1cccc(-c2cccc3c2N(Cc2ccc(C4CCN(C(=O)[C@H](C)O)CC4)cc2C)CC3)n1 [Example 18, (S)-5-Ethyl-1-(6-(1-(4-(1-(2-hydroxypropanoyl)piperidin-4-yl)-2-methylbenzyl)indolin-7-yl)pyridin-2-yl)-1H-pyrazole-4-carboxylic Acid]
≤ 0.5 | CCc1c(C(=O)O)cnn1-c1cccc(-c2cccc3c2N(Cc2ccc(C4CCN(C(=O)C5CC5)CC4)cc2C)CC3)n1 [Example 21-2, 1-(6-(1-(4-(1-(Cyclopropanecarbonyl)piperidin-4-yl)-2-methylbenzyl)indolin-7-yl)pyridin-2-yl)-5-ethyl-1H-pyrazole-4-carboxylic acid]
2 | CCc1cc(CN2CC(C)(C)c3cccc(-c4cccc(-n5ncc(C(=O)O)c5CC)n4)c32)ccc1C1CCN(C(=O)C2CC2)CC1 [Example 23]
2.4 | O=C(O)c1cnn(-c2cccc(-c3cccc4c3N(Cc3ccc5c(c3)CCN(Cc3ccccn3)C5)CC4)n2)c1C(F)(F)F [Example 25, 1-(6-(1-((2-(Pyridin-2-ylmethyl)-1,2,3,4-tetrahydroisoquinolin-6-yl)methyl)indolin-7-yl)pyridin-2-yl)-5-(trifluromethyl)-1H-pyrazole-4-carboxylic Acid]
≤ 0.5 | CCc1cc(O[C@H]2CCc3cccc(-c4cccc(-n5ncc(C(=O)O)c5CC)n4)c32)ccc1C1CCN(C(=O)[C@H](C)O)CC1 [Example 30]
